The source of these data is ChEMBL document CHEMBL1144574, “Synthesis and identification of novel oxa-steroids as progesterone receptor antagonists” (Bioorg Med Chem Lett, 2007).

pIC50: −log10 of the molar value.

Assay [1] concerns the target T1, Glucocorticoid receptor (Homo sapiens, UniProt P04150).
T1 sequence (P04150 whole entry): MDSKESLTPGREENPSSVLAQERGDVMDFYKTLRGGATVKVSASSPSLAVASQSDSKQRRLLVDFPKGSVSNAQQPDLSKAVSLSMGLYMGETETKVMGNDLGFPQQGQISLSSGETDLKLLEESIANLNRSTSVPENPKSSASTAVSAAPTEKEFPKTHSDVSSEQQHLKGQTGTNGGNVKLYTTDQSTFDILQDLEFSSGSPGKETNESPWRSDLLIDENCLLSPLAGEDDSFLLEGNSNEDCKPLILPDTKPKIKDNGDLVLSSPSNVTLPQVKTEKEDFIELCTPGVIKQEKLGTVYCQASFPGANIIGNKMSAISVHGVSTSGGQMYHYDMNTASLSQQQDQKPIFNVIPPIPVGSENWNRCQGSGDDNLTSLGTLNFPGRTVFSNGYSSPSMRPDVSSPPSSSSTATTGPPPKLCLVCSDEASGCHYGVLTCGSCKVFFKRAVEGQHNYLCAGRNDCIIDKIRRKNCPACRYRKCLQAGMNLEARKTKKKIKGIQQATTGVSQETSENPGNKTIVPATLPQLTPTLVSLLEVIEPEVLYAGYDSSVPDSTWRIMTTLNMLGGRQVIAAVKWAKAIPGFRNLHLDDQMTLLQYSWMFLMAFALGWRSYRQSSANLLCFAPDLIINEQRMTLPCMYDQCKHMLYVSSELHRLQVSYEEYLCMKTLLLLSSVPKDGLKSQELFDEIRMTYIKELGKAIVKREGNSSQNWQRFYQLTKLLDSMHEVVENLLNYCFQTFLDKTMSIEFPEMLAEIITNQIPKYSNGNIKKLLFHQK
As to the kind of experiment: Antagonist activity at glucocorticoid receptor in human A549 cells assessed as inhibition of corticoid-induced GRE-linked luciferase reporter gene activity. The format is functional, cell-based.

Assay [2] concerns the target T2, Progesterone receptor (Homo sapiens, UniProt P06401).
T2 sequence (P06401 whole entry): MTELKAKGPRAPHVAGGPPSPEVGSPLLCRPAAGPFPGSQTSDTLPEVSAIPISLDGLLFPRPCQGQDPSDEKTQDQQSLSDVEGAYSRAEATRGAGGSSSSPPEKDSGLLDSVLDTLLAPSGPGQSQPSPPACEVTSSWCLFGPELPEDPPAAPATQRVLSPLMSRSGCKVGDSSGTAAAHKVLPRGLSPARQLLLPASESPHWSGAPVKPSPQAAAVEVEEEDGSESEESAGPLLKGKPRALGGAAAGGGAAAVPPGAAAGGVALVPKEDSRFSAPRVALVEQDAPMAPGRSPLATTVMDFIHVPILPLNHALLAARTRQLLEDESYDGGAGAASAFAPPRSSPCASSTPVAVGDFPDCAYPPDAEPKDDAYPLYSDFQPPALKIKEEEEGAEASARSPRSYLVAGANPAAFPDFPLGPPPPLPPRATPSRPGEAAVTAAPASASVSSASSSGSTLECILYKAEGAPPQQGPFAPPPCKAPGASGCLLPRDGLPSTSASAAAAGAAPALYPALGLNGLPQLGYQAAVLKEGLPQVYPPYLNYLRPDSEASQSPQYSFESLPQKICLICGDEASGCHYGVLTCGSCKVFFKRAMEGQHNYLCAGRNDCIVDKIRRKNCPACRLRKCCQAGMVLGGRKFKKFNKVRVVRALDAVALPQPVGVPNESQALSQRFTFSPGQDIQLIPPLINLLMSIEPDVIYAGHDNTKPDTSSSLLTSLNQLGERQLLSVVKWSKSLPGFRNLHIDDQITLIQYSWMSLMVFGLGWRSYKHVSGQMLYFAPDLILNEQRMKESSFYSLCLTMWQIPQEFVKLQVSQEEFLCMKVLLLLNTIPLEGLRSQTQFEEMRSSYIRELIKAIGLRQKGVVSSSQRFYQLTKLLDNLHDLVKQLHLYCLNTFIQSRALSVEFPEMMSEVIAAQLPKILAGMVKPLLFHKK
The experiment in a line: Antagonist activity at progesterone receptor in human T47D cells assessed as inhibition of progesterone-induced alkaline phosphatase activity. It counts as functional, cell-based.

Assay [3] is filed under the species Homo sapiens. As to the kind of experiment: Selectivity for human progesterone receptor over human glucocorticoid receptor.

As for `CN(C)CC#C[C@]1(O)CC[C@H]2[C@@H]3OCC4=CC(=O)CCC4=C3[C@@H](c3ccc(N(C)C)cc3)C[C@@]21C`, the pIC50 – broadly, the IC50 on a negative log10 scale, so that one unit is a factor of ten – in assay [1] was < 5.52; in assay [2] it was < 6.00.
Turning to `C#C[C@]1(O)CC[C@H]2[C@@H]3OCC4=CC(=O)CCC4=C3[C@@H](c3ccc(N(C)C)cc3)C[C@@]21C`, the Ratio IC50 in assay [3] stood at 11. Besides, the values for the pIC50 in assay [1] and in assay [2] were 6.69 and 7.72, respectively.
In the case of `CN(C)c1ccc([C@H]2C[C@@]3(C)[C@@H](CC[C@@]3(O)C#CC(C)(C)O)[C@@H]3OCC4=CC(=O)CCC4=C32)cc1`, the pIC50 is 6.25 in assay [1] and < 6.00 in assay [2].
Consider `CN(C)c1ccc([C@H]2C[C@@]3(C)[C@@H](CC[C@@]3(O)C#CC(F)(F)F)[C@@H]3OCC4=CC(=O)CCC4=C32)cc1`, for which, in assay [3], the Ratio IC50 was 6. Also, the pIC50 in assay [1] is 7.26; in assay [2], 8.03.
The matching figures for `CN(C)c1ccc([C@H]2C[C@@]3(C)[C@@H](CC[C@@]3(O)C#CC(C)(C)C)[C@@H]3OCC4=CC(=O)CCC4=C32)cc1`: 1, 6.78 and 6.73.
The corresponding values for `CC#C[C@]1(O)CC[C@H]2[C@@H]3OCC4=CC(=O)CCC4=C3[C@@H](c3ccc(N(C)C)cc3)C[C@@]21C` are 12, 7.06 and 8.12.
On to `CN(C)c1ccc([C@H]2C[C@@]3(C)[C@@H](CC[C@@]3(O)C#CC3CC3)[C@@H]3OCC4=CC(=O)CCC4=C32)cc1`, for which the Ratio IC50 in assay [3] amounted to 4. Besides, the values for the negative logarithm of the IC50 (pIC50) in assay [1] and in assay [2] were 7.48 and 8.02, respectively.
The corresponding values for `CN(C)c1ccc([C@H]2C[C@@]3(C)[C@@H](CC[C@@]3(O)C#Cc3ccccc3)[C@@H]3OCC4=CC(=O)CCC4=C32)cc1` are 217, 6.52 and 8.85.
